Tests used:
PI3Kα (p110α/p85α) = PI3Kα (p110α/p85α) (Homo sapiens (Human), UniProt P42336); assay: PI3Kα enzymatic test by measuring the consumption of ATP; format: biochemical
Method: Model 2: PI3Kα Enzymatic Test by Measuring the Consumption of ATP.
The test uses a lucifeurerin/luciferase system to measure the concentration of ATP and its consumption during the enzymatic reaction. The test is performed in 96-well format (Corning/Costar 96 black flat-bottomed half-wells plate, ref. 3694) in a total volume of 30 μl.
To 1 μl of inhibitor in 100% DMSO are added (final concentrations) 50 μM of the substrate PIP2 ((L-α-phosphatidyl-D-myoinositol 4,5-bisphosphate, Echelon 117P-4516-0500), 2 μM of ATP and 1.7 μg/ml of PI3Kα, (p110α/p85α, Invitrogen PV4788) in a buffer of Tris/HCl 50 mM pH 7.5, EGTA 1 mM, MgCl2 10 mM, Chaps 0.03%, 1 mM DTT). After 90 minutes, the reaction is quenched by adding 20 μl/well of KinaseGlo reagent (Promega V6713). After 10 minutes in the dark, the luminescence is read on the PHERAStar microplate reader (reading at 0.8 sec/well).
The IC50 values are determined by the preparation of successive threefold dilutions on at least a scale of 10 000.

[1] = biological target: mTOR (human recombinant aa mTOR 1360-2549) (Homo sapiens (Human), UniProt P42345); assay: mTOR enzymatic test by TR-FRET (phosphorylation of GFP-4EBP1); format: biochemical
Chain of mTOR (human recombinant aa mTOR 1360-2549) (P42345 1360-2549): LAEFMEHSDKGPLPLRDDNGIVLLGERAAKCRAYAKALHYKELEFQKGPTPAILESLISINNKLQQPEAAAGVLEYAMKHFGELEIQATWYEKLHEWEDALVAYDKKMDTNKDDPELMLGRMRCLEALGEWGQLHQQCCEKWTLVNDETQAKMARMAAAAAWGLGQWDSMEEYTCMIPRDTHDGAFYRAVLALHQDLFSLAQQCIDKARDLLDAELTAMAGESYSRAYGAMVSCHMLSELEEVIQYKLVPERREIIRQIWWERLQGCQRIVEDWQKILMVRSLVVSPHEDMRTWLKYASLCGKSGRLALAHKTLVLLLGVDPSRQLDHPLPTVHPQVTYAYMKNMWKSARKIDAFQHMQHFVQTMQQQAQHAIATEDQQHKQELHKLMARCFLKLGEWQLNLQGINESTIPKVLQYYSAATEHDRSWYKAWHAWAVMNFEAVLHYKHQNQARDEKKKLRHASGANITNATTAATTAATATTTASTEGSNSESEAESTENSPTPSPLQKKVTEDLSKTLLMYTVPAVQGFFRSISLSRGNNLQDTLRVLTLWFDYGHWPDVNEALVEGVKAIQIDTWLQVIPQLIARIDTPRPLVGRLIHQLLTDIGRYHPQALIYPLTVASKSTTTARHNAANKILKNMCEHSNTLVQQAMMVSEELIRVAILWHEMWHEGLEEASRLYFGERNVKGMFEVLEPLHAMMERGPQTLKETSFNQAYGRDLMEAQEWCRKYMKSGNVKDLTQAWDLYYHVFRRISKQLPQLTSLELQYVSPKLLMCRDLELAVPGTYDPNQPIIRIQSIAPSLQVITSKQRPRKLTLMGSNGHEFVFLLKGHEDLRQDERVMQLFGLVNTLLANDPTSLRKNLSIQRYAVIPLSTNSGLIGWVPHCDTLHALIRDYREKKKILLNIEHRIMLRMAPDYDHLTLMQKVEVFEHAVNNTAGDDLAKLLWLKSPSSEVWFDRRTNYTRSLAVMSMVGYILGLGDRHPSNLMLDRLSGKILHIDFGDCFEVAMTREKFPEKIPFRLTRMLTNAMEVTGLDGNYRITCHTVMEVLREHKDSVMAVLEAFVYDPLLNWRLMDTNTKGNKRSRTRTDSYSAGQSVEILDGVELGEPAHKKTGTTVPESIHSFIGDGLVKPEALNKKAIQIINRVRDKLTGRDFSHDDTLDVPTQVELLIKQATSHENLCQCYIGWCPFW
Method: Model 1: mTOR Enzymatic Test by TR-FRET (Time-resolved Fluorescence Resonance Energy Transfer).
The test detects the phosphorylation of the substrate GFP-4EBP1 using a terbium-labelled antibody that is specific for the phospho-Thr46 epitope. Binding of the Tb-antibody to the phosphorylated GFP peptide allows the transfer of energy from Tb, excited at 340 nm, to GFP with an increase in the fluorescence emission of the GFP at 520 nm. […] The mixture is incubated for 30 minutes at room temperature. 10 μl of solution are taken up and the reaction is quenched by adding 10 μl of Tb-antibody solution (Invitrogen PV4757)/EDTA (2 nM Tb-Ac and 10 mM EDTA final). After 60 minutes at room temperature, the fluorescence at 490 nm, from the Tb emission, and at 520 nm, from the GFP emission, is measured in a BMG PHERAstar reader equipped with a Lanthascreen™ filter (excitation at 340 nm, emission at 490 and 520 nm). The results are given in the form of the 520/490 ratio.

U87MG tumour cells = assay: Test of in vitro proliferation of U87MG tumour cells; format: cell-based; conditions: Homo sapiens, U-87 MG, 72 h, U87MG cells, 72 hours; read-out: U87 Cell Proliferation IC50
Method: Model 4: Test of in vitro Proliferation of U87MG Tumour Cells.
The cell growth is determined with the reagent CellTiter 96 AQueous One Solution Cell Proliferation Assay from Promega (Cat. No. G3581).

Chain of PI3Kα (p110α/p85α) (P42336 whole entry): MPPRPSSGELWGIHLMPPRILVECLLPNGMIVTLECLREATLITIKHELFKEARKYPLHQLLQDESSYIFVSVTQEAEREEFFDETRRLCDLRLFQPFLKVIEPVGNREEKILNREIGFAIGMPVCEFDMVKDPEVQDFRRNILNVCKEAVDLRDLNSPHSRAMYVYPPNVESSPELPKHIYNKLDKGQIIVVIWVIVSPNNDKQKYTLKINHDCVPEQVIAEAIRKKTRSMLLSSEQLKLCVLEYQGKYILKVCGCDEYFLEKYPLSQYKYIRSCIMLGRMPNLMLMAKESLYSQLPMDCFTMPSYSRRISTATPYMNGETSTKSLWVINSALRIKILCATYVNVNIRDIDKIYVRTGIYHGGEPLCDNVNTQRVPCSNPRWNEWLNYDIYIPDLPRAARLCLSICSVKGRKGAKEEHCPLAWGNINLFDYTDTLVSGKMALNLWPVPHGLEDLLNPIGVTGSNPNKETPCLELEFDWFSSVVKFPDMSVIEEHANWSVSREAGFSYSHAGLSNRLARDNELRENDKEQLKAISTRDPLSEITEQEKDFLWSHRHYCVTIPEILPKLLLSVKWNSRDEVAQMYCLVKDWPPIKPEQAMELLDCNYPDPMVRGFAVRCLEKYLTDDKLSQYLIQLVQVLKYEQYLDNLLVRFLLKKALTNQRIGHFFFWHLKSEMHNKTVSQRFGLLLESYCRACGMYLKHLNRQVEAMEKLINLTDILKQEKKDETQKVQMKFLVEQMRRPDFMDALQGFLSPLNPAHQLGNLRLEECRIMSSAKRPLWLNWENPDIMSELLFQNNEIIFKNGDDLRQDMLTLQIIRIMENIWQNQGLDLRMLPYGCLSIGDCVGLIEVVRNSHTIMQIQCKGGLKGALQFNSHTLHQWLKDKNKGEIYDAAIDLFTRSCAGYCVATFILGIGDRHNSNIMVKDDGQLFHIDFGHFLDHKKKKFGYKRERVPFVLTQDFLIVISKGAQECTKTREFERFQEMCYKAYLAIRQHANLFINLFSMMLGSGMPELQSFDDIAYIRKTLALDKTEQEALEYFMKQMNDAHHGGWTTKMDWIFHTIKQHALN
Chain of PI3Kα (p110α/p85α) (P27986 whole entry partner): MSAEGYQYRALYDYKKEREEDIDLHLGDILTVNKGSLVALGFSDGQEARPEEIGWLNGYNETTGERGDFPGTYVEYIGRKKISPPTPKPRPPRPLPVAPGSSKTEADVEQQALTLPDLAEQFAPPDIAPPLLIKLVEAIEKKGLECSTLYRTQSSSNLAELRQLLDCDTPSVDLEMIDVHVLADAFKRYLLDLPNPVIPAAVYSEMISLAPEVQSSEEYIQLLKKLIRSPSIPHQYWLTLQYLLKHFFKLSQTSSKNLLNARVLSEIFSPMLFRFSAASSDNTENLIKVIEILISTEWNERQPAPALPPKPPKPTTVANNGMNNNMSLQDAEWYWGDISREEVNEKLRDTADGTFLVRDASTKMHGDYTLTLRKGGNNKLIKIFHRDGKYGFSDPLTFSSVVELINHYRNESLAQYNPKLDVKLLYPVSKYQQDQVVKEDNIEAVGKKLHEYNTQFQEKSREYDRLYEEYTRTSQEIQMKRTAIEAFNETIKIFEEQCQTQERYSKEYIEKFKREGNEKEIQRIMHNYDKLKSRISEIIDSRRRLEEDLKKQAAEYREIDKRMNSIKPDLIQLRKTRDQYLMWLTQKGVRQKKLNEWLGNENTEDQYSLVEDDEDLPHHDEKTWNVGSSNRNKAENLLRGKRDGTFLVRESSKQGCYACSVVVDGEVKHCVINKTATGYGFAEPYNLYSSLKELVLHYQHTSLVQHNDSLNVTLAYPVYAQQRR

| SMILES | PI3Ka IC50 (PI3Kα (p110α/p85α)) [µM] | IC50 [1] [µM] | IC50 (U87MG tumour cells) [µM] |
| --- | --- | --- | --- |
| CCNC(=O)Nc1ccc(-c2nc(N3CC4CCC(C3)O4)nc3c2C(=O)N(C[C@@H]2CCCN2C(=O)OCC)CC(C)(C)O3)cc1F [Example 5, (S)-2-[4-[4-(3-ethylureido)-3-fluorophenyl]-8,8-dimethyl-2-(8-oxa-3-azabicyclo[3.2.1]oct-3-yl)-5-oxo-7,8-dihydro-5H-9-oxa-1,3,6-triazabenzocyclohepten-6-ylmethyl]pyrrolidine-1-carboxylic acid ethyl ester] | >10 | 0.905 | > 10 |
| CCNC(=O)Nc1ccc(-c2nc(N3CC4CCC(C3)O4)nc3c2C(=O)N(C[C@@H]2CCCN2C(C)=O)CC(C)(C)O3)cc1F [Example 6, 1-{4-[6-((S)-1-acetylpyrrolidin-2-ylmethyl)-8,8-dimethyl-2-(8-oxa-3-azabicyclo[3.2.1]oct-3-yl)-5-oxo-5,6,7,8-tetrahydro-9-oxa-1,3,6-triazabenzocyclohepten-4-yl]-2-fluorophenyl}-3-ethylurea] | >10 | 1.07 | 7.15 |
| CCNC(=O)Nc1ccc(-c2nc(N3CC4CCC(C3)O4)nc3c2C(=O)N(CCCO)CC(C)(C)O3)cc1 [Example 9, 1-ethyl-3-{4-[6-(3-hydroxypropyl)-8,8-dimethyl-2-(8-oxa-3-azabicyclo[3.2.1]oct-3-yl)-5-oxo-5,6,7,8-tetrahydro-9-oxa-1,3,6-triazabenzocyclohepten-4-yl]phenyl}urea] | >10 | 0.065 | 2.5 |
| CCNC(=O)Nc1ccc(-c2nc(N3CC4CCC(C3)O4)nc3c2C(=O)N(CC)CC(C)(C)O3)cn1 [Example 17, 1-ethyl-3-{5-[6-ethyl-8,8-dimethyl-2-(8-oxa-3-azabicyclo[3.2.1]oct-3-yl)-5-oxo-5,6,7,8-tetrahydro-9-oxa-1,3,6-triazabenzocyclohepten-4-yl]pyridin-2-yl}urea] | >10 | 2.49 | > 10 |
| CC1(C)CNC(=O)c2c(nc(N3CCOCC3)nc2-c2ccc(N)nc2)O1 [Example 95, 4-(6-Aminopyridin-3-yl)-8,8-dimethyl-2-morpholin-4-yl-7,8-dihydro-6H-9-oxa-1,3,6-triazabenzocyclohepten-5-one] | >10 | 0.624 | – |
| CCNC(=O)Nc1ccc(-c2nc(N3CCOCC3)nc3c2C(=O)N(CC)CCO3)cc1 [Example 97, 1-Ethyl-3-[4-(6-ethyl-2-morpholin-4-yl-5-oxo-5,6,7,8-tetrahydro-9-oxa-1,3,6-triazabenzocyclohepten-4-yl)phenyl]urea] | 2.159 | 0.8 | > 10 |
| CCN1CC(C)(C)Oc2nc(N3CCOCC3)nc(-c3ccc(OC)c(CO)c3)c2C1=O [Example 100, 6-Ethyl-4-(3-hydroxymethyl-4-methoxyphenyl)-8,8-dimethyl-2-morpholin-4-yl-7,8-dihydro-6H-9-oxa-1,3,6-triazabenzocyclohepten-5-one] | 7.44 | 7.29 | > 10 |
| CCN1CC(C)(C)Oc2nc(N3CC4CCC(C3)O4)nc(-c3ccc(OC)c(CO)c3)c2C1=O [Example 101, 6-Ethyl-4-(3-hydroxymethyl-4-methoxyphenyl)-8,8-dimethyl-2-(8-oxa-3-azabicyclo[3.2.1]oct-3-yl)-7,8-dihydro-6H-9-oxa-1,3,6-triazabenzocyclohepten-5-one] | – | 4.04 | > 10 |
| CCN1CC(C)(C)Oc2nc(N3CCOCC3)nc(-c3ccc(N)cc3)c2C1=O [Example 102, 4-(4-Aminophenyl)-6-ethyl-8,8-dimethyl-2-morpholin-4-yl-7,8-dihydro-6H-9-oxa-1,3,6-triazabenzocyclohepten-5-one] | 3.61 | 0.927 | 9.83 |
| CCN1CC(C)(C)Oc2nc(N3CCOCC3)nc(-c3ccc(NC(=O)NOC)cc3)c2C1=O [Example 104, 1-Methoxy-3-[4-(6-ethyl-8,8-dimethyl-2-morpholin-4-yl-5-oxo-5,6,7,8-tetrahydro-9-oxa-1,3,6-triazabenzocyclohepten-4-yl)phenyl]urea] | 3.75 | 1.49 | > 10 |
| CCN1CC(C)(C)Oc2nc(N3CC4CCC(C3)O4)nc(-c3ccc(N)nc3)c2C1=O [Example 107, 4-(6-Aminopyridin-3-yl)-6-ethyl-8,8-dimethyl-2-(8-oxa-3-azabicyclo[3.2.1]oct-3-yl)-7,8-dihydro-6H-9-oxa-1,3,6-triazabenzocyclohepten-5-one] | 9.38 | 2.65 | > 10 |
| CCC(=O)Nc1ccc(-c2nc(N3CC4CCC(C3)O4)nc3c2C(=O)N(CC)CC(C)(C)O3)cc1 [Example 108, N-{4-[6-Ethyl-8,8-dimethyl-2-(8-oxa-3-azabicyclo[3.2.1]oct-3-yl)-5-oxo-5,6,7,8-tetrahydro-9-oxa-1,3,6-triazabenzocyclohepten-4-yl]phenyl}propionamide] | >10 | 0.472 | 4.45 |
| CCNC(=O)Nc1ccc(-c2nc(N3C[C@@H](C)O[C@@H](C)C3)nc3c2C(=O)N(CC)CC(C)(C)CO3)cc1 [Example 109, 1-{4-[2-((2S,6R)-2,6-Dimethylmorpholin-4-yl)-6-ethyl-8,8-dimethyl-5-oxo-6,7,8,9-tetrahydro-5H-10-oxa-1,3,6-triazabenzocycloocten-4-yl]phenyl}-3-ethylurea] | 2.046 | 7.77 | – |
| CCN1CC(C)(C)Oc2nc(N3CC4CCC(C3)O4)nc(-c3ccc(NS(=O)(=O)CC)cc3)c2C1=O [Example 111, Ethanesulfonic acid {4-[6-ethyl-8,8-dimethyl-2-(8-oxa-3-azabicyclo[3.2.1]oct-3-yl)-5-oxo-5,6,7,8-tetrahydro-9-oxa-1,3,6-triazabenzocyclohepten-4-yl]phenyl}amide] | >10 | 6.35 | – |
| CCNC(=O)Nc1ccc(-c2nc(N3CC4CCC(C3)O4)nc3c2CN(CC)CC(C)(C)O3)cc1 [Example 113, 1-Ethyl-3-{4-[6-ethyl-8,8-dimethyl-2-(8-oxa-3-azabicyclo[3.2.1]oct-3-yl)-5,6,7,8-tetrahydro-9-oxa-1,3,6-triazabenzocyclohepten-4-yl]phenyl}urea] | >10 | 3.96 | > 10 |
| CCNC(=O)Nc1ccc(-c2nc(N3C[C@@H](C)O[C@@H](C)C3)nc3c2C(=O)N(CC)CC(C)(C)O3)cc1 [Example 114, 1-{4-[2-((2S,6R)-2,6-Dimethylmorpholin-4-yl)-6-ethyl-8,8-dimethyl-5-oxo-5,6,7,8-tetrahydro-9-oxa-1,3,6-triazabenzocyclohepten-4-yl]phenyl}-3-ethylurea] | >10 | 1.22 | > 10 |
| CCN1CC(C)(C)Oc2nc(N3CC4CCC(C3)O4)nc(-c3ccc(NC(=O)Nc4ccnn4C)cc3)c2C1=O [Example 115, 1-{4-[6-Ethyl-8,8-dimethyl-2-(8-oxa-3-azabicyclo[3.2.1]oct-3-yl)-5-oxo-5,6,7,8-tetrahydro-9-oxa-1,3,6-triazabenzocyclohepten-4-yl]phenyl}-3-(2-methyl-2H-pyrazol-3-yl)urea] | >10 | 0.147 | 5 |
| CCN1CC(C)(C)Oc2nc(N3CC4CCC(C3)O4)nc(-c3ccc(NC(=O)NC(C)(C)CO)c(F)c3)c2C1=O [Example 224, 1-{4-[6-Ethyl-8,8-dimethyl-2-(8-oxa-3-azabicyclo[3.2.1]oct-3-yl)-5-oxo-5,6,7,8-tetrahydro-9-oxa-1,3,6-triazabenzocyclohepten-4-yl]-2-fluorophenyl}-3-(2-hydroxy-1,1-dimethylethyl)urea] | >10 | 1.12 | – |
| COCCN1CC(C)(C)Oc2nc(N3CCOC[C@@H]3C)nc(-c3ccc(NC(=O)NCC(C)(C)O)c(F)c3)c2C1=O [Example 226, 1-{2-Fluoro-4-[6-(2-methoxyethyl)-8,8-dimethyl-2-((S)-3-methylmorpholin-4-yl)-5-oxo-5,6,7,8-tetrahydro-9-oxa-1,3,6-triazabenzocyclohepten-4-yl]phenyl}-3-(2-hydroxy-2-methylpropyl)urea] | >10 | 1.28 | – |
